Source: PMC7255801, “Disease-associated mutations in the human TRPM3 render the channel overactive via two distinct mechanisms” (eLife, 2020)

Assays:
wild-type hTRPM3_1325 = biological target: T1, wild-type hTRPM3_1325 (Homo sapiens, UniProt Q9HCF6); assay: Two electrode voltage clamp in Xenopus oocytes, wild type channel; assay type: cell-based; settings: wild type TRPM3, 50 μM, room temperature (20–22°C)
T1 construct: expressed in transfected cells; host or cells: Xenopus laevis oocytes (cRNA injection)
T1 sequence (Q9HCF6 1-1325 isoform Q9HCF6-10): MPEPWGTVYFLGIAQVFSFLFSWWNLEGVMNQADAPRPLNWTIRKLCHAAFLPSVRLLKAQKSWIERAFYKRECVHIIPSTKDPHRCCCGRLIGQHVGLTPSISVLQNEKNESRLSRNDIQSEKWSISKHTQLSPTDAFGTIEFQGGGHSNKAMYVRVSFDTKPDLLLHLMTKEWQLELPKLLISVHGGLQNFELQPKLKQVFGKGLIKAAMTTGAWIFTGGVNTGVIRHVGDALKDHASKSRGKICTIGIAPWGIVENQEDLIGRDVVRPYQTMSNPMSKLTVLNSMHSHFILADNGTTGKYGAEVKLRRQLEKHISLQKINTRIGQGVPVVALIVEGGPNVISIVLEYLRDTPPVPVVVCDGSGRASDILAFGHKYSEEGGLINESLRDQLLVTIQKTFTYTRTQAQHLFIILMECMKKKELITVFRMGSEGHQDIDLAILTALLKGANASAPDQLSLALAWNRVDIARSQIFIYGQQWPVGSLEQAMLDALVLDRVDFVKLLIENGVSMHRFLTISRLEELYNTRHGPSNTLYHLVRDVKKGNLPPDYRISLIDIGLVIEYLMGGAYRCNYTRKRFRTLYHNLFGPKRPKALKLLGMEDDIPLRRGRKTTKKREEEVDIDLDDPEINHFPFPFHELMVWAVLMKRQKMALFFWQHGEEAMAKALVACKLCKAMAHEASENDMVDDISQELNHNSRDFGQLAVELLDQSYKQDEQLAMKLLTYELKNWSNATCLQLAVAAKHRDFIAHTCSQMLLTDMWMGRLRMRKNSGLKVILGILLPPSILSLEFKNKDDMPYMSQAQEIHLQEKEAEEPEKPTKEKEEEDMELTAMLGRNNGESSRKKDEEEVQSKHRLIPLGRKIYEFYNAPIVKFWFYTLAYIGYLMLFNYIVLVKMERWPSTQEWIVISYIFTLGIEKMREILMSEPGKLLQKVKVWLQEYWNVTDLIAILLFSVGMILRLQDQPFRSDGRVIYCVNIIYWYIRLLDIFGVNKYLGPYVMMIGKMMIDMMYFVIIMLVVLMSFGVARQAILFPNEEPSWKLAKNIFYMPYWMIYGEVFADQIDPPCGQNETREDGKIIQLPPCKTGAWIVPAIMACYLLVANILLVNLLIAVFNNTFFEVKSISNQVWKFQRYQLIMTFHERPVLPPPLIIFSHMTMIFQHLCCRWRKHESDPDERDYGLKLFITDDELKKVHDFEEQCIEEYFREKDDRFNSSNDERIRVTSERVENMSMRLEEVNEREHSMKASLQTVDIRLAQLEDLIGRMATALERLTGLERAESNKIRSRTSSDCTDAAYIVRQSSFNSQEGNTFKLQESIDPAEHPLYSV
Protocol: (§1) Xenopus laevis oocytes were prepared as described earlier ([Badheka et al., 2015]). All animal procedures were approved by the Institutional Animal Care and Use Committee at Rutgers New Jersey Medical School. In brief, frogs were anesthetized in 0.25% ethyl 3-aminobenzoate methanesulfonate solution (MS222; Sigma-Aldrich); bags of ovaries were removed surgically from the anesthetized frogs. Individual oocytes were obtained by overnight digestion at 16°C in 0.2–0.3 mg/ml type 1A collagenase (Sigma-Aldrich), dissolved in a solution containing 82.5 mM NaCl, 2 mM KCl, 1 mM MgCl2, and […] HEPES, pH 7.4 (OR2 solution). The next day the collagenase containing solution was discarded and the oocytes were washed multiple times with OR2 solution. […]
(§2) Two electrode voltage clamp experiments were performed as described ([Badheka et al., 2015]). In brief, oocytes were placed in extracellular solution (97 mM NaCl, 2 mM KCl, 1 mM MgCl2, and […] HEPES, pH 7.4), and currents were recorded with thin-wall inner filament– containing glass pipettes (World Precision Instruments) filled with 3 M KCl in 1% agarose. Currents were measured with a ramp protocol from −100 to 100 mV once every 0.5 s with a GeneClamp 500B amplifier and analyzed with the pClamp 9.0 software (Molecular Devices). […]

non-injected oocytes = assay: Two electrode voltage clamp in non-injected oocytes; assay type: cell-based, Xenopus laevis; settings: 50 μM, n = 5
Protocol: as §1, §2

Inhibition of basal current (wild-type hTRPM3_1325): small reduction
SMILES: CCC1(c2ccccc2)C(=O)NCNC1=O [primidone]
Inhibition of basal current (non-injected oocytes): did not induce any inhibition
